# Assay results taken from patent US20210113602A1, “USE OF 6-THIO-2'-DEOXYGUANOSINE (6-THIO-dG) TO TREAT MELANOMA” (The Board of Regents of the University of Texas System, priority 2018, published 2021).
# “Also recorded” adds a separate entry of the source.
# What was measured:
# [1] = tested on: NRAS mutant melanoma cells; assay: Telomere dysfunction-induced foci (TIF) assay; assay type: cell-based, human; details: WM3000 transduced with TERT shRNA; NAC 1 mM for 7 days
# Method: Supplementary FIGS. 6a-b. […] NRAS mutant melanoma cells WM3000 were transduced with TERT shRNA and treated with NAC […] for 7 days. (Supplementary FIG. 6a) TIFs were assessed by indirect immunofluorescence combined with fluorescence in situ hybridization (FISH). Representative images are shown (scale bar=10 μm). (Supplementary FIG. 6b) Quantification of TIF positive cells. Cells were scored as TIF positive when three or more y-H2AS foci (green) were co-localizing with telomere foci (red). Data represent average of thirteen fields imaged +/−SD.
# Supplementary FIGS. 8a-d. NRAS mutant melanoma cells are sensitive to the telomere uncapping agent 6-thio-dG. NRAS^mut melanoma cells were treated with 6-thio-dG for 6, 12 or 18 days. (Supplementary FIG. 8a) Relative cell number was assessed by Cyrstal Violet assay and calculated relative to DMSO-treated cells. […] (Supplementary FIG. 8c) NRAS^mut cells were treated with 6-thio-dG for 7 days and telomere-induced foci (TIF) were determined by indirect immunofluorescence combined with fluorescence in situ hybridization (FISH). […] (Supplementary FIG. 8d) Quantification of TIF assay. Cells were scored as TIF-positive when four or more γ-H2AX foci (green) were co-localizing with telomere foci (red). […] P values were calculated by unpaired Student's t-test.
# DNA damage and telomere dysfunction assay (TIF). […] Mean fluorescence staining was quantified by flow cytometry. […]
# [2] = tested on: NRAS mutant melanoma spheroids; assay: 3D collagen-embedded melanoma spheroids, live/dead staining; assay type: cell-based, human; details: 6-thio-dG (5 μM) and Ganetespib (5 μM); day 7
# Method: (FIG. 6a) Collagen-embedded melanoma spheroids were treated with DMSO, 6-thio-dG (5 μM) and Gam (5 μM) as in FIGS. 4a-c. On day 7, spheroids were stained with Calcein AM (live cells;
# green) and EtBr (dead cells; red) and imaged using an inverted microscope (4×; scale bar=250 μm). Representative merged images from three independent experiments are shown. (FIGS. 6b-d) NRAS mutant M93-047 tumor bearing mice were treated with vehicle control, 6-thio-dG (2.5 mg/kg; ip qd), Gam (12.5 mg/kg; ip qod), or the combination of the two drugs for the indicated days (n=7 mice/group). (FIG. 6b) Average tumor volume over time±SEM is represented. (FIG. 6c) Average tumor weight±SEM after 14 days of treatment. P values were calculated using unpaired Student's t-test. * p<0.05, **p<0.01, ***p<0.005, when comparing vehicle control vs. combination treatment groups. […] Kaplan Meier survival curves of mice treated for 14 days. p-values were calculated by Mantel-Cox logrank test; * p<0.05, **p<0.01, ***p<0.005. (FIG. 6e) Animal weight (grams) before treatment (start of TX) and at the end of the study (End of TX) was assessed and recorded for every mouse enrolled in the study. […] Statistical significance was assessed by unpaired Student's t-test.
# Supplementary FIGS. 10a-b. […] Percent cell death was determined by flow cytometry following staining of cells with Annexin V and Propidium iodide. […]
# NRAS mutant SKNAS cells = assay: Cell death, Annexin V/PI; assay type: cell-based, human; details: single agents or combination; 1 μM 6-thio-dG, 5 μM Gam
# BRAF-mutant melanoma = details: cited from earlier work
# [3] = tested on: NRAS mutant melanoma cells; assay: Cell death by flow cytometry (PSVue or Annexin V/PI); assay type: cell-based; details: TERT shRNA 7 dpi; 5 μM Gamitrinib for 48 h
# Method: (FIG. 2d) NRASmut melanoma cells and non-transformed human fibroblasts were treated with 1 or 5 μM 6-thio-dG for 7 or 14 days. Cell death was assessed by PSVUe staining. Percent of apoptotic cells is shown. […] (FIGS. 2f-g) Cells were treated with 1 μM 6-thio-dG for 7 days. […] Data represent average from three independent experiments±SEM. *p<0.05; **p<0.01; ***p<0.005 in unpaired Student's t-test.
# (FIG. 3f) SOD2 was silenced using shRNA. Transduced M93-047 cells were treated with DMSO or 1 μM of 6-thio-dG and cell death was assessed by Annexin V/PI straining. (FIG. 3g) M93-047 cells were transduced with a SOD2 lentiviral construct or empty vector control (pLX304). Transduced cells were treated with increasing doses (1, 2.5 and 5 μM) of 6-thio-dG for 7 days and cell death was assessed. Data represent average from three independent experiments±SEM. *p<0.05; **p<0.01; ***p<0.005 in unpaired Student's t-test.
# (FIG. 4a) NRASmut melanoma cells transduced with TERT shRNA were treated 7 days post infection with 5 μM Gamitrinib (Gam) for 48 h. Cell death was assessed by Annexin V and PI staining. (FIG. 4b) NRASmut melanoma cells and non-transformed fibroblasts were treated with 1 μM 6-thio-dG for 5 days. At day 5, culture medium was replaced and cells treated with 1 μM 6-thio-dG plus 5 μM Gam for two more days. Cells were stained with Annexin V and PI and percent cell death was determined by flow cytometry. […] Data represent average of three independent experiments ±SEM. P values were calculated using unpaired Student's t-test; * p<0.05; ***p<0.005.
# (Supplementary FIG. 10a) NRASmut melanoma cells were treated with 6-thio-dG (1 μ) for 7 days total. At day 5, culture medium was replaced and cells were treated with 1 μM 6-thio-dG plus 1 mM Phenformin for two more days. Percent cell death was determined by flow cytometry following staining of cells with Annexin V and Propidium iodide. Data represent average of three independent experiments +/−SEM. *p<0.05 in unpaired Student's t-test.
# SOD2 = details: cited from earlier work
# KRAS mutant A549 cells = assay: Cell death, Annexin V/PI; assay type: cell-based, human; details: 1 μM 6-thio-dG, 5 μM Gam
# [4] = tested on: NRAS-WT/BRAF-mut melanoma cells; assay: Cell death, Annexin V/PI; assay type: cell-based, human
# [5] = tested on: NRAS-WT/BRAF-WT melanoma cells; assay: Cell death, Annexin V/PI; assay type: cell-based, human; details: single agents or combination; 1 μM 6-thio-dG, 5 μM Gam
# NRAS mutant cells = details: cited from earlier work
# KRAS mutant HCT116 cells = assay: Cell death, Annexin V/PI; assay type: cell-based, human; details: 1 μM 6-thio-dG, 5 μM Gam
compound,measurement,setting,value
"CC(=O)N[C@@H](CS)C(=O)O [NAC, N-acetyl-L-cysteine]",number of TIF in TERT depleted cells,[1],attenuates TIFs; also recorded: attenuated the number of TIF
CC(C)c1cc(-c2n[nH]c(=O)n2-c2ccc3c(ccn3C)c2)c(O)cc1O [ganetespib],enhancement of 6-thio-dG efficacy in spheroids,[2],did not substantially enhance the efficacy
Gamitrinib [reference compound],cell death,NRAS mutant SKNAS cells,triggered significant death
same,anti-cancer efficacy,BRAF-mutant melanoma,efficacy
same,cytotoxic effects in TERT depleted cells,[3],enhanced the cytotoxic effects
same,SOD2 levels,SOD2,downregulate SOD2 levels
same,cell death,KRAS mutant A549 cells,did not induce substantial death
same,cell death (in words),"[4]; 1 μM 6-thio-dG, 5 μM Gam",highly sensitive
same,cell death,"[4]; Gamitrinib alone, 5 μM",75-80%
same,cell death,[5],did not induce cell death
same,anti-cancer activity as a single agent,NRAS mutant cells,limited activity
same,cell death,KRAS mutant HCT116 cells,did not induce substantial death
